Assay results: the CheMixHub viscosity set

Test: xn = mol fraction of the nth substance listed

CCOCCOCCO + CCCO
viscosity [mPa·s], 101 kPa
Conditions	298.15 K	308.15 K	318.15 K
x1 = 0.0114	1.94	1.509	1.233
x1 = 0.0195	1.939	1.508	1.233
x1 = 0.0356	1.947	1.516	1.248
x1 = 0.0469	1.955	1.517	1.249
x1 = 0.0557	1.95	1.526	1.259
x1 = 0.0883	1.972	1.546	1.277
x1 = 0.1002	1.992	1.558	1.281
x1 = 0.136	2.017	1.588	1.308
x1 = 0.1447	2.04	1.589	1.316
x1 = 0.168	2.051	1.617	1.341
x1 = 0.245	2.184	1.701	1.409
x1 = 0.2877	2.294	1.756	1.456
x1 = 0.3493	2.473	1.868	1.567
x1 = 0.411	2.616	1.984	1.657
x1 = 0.4745	2.761	2.1	1.752
x1 = 0.536	2.889	2.191	1.822
x1 = 0.6067	3.022	2.29	1.903
x1 = 0.6682	3.138	2.378	1.978
x1 = 0.7228	3.248	2.453	2.044
x1 = 0.7879	3.383	2.55	2.118
x1 = 0.8412	3.494	2.622	2.178
x1 = 0.894	3.6	2.695	2.238
x1 = 0.9378	3.694	2.76	2.281
x1 = 0.9751	3.755	2.813	2.324

O=[N+]([O-])c1ccccc1 + CCCC(C)O
viscosity [mPa·s], 100 kPa
Conditions	x1 = 0.081	x1 = 0.1601	x1 = 0.24	x1 = 0.35	x1 = 0.4401	x1 = 0.56	x1 = 0.6503	x1 = 0.7402	x1 = 0.8504	x1 = 0.9404
293.15 K	3.323	2.827	2.444	2.095	1.931	1.863	1.867	1.914	1.999	2.054
298.15 K	2.753	2.364	2.068	1.809	1.697	1.67	1.684	1.738	1.821	1.878
303.15 K	2.317	2.016	1.794	1.598	1.517	1.503	1.523	1.579	1.66	1.718
308.15 K	1.993	1.776	1.608	1.454	1.385	1.36	1.377	1.421	1.497	1.568
313.15 K	1.711	1.545	1.417	1.301	1.249	1.239	1.259	1.302	1.378	1.451
318.15 K	1.497	1.375	1.28	1.188	1.148	1.135	1.15	1.188	1.26	1.338
323.15 K	1.311	1.227	1.159	1.089	1.055	1.044	1.057	1.091	1.16	1.238

CCOCCOCCO + O=C1CCCN1
298.15 K, 101 kPa
Conditions	viscosity [mPa·s]
x1 = 0.0021	14.17
x1 = 0.004	14.1
x1 = 0.0086	14
x1 = 0.0117	13.9
x1 = 0.0212	13.57
x1 = 0.0348	13.2
x1 = 0.0525	12.63
x1 = 0.0788	12.03
x1 = 0.108	11.37
x1 = 0.1478	10.61
x1 = 0.1914	9.859
x1 = 0.2318	9.217
x1 = 0.2798	8.602
x1 = 0.3222	8.116
x1 = 0.3673	7.637
x1 = 0.4326	7.009
x1 = 0.4635	6.788
x1 = 0.5199	6.331
x1 = 0.5639	6.038
x1 = 0.6088	5.76
x1 = 0.6756	5.37
x1 = 0.7363	5.074
x1 = 0.7879	4.842
x1 = 0.8388	4.665
x1 = 0.8795	4.494
x1 = 0.9249	4.308
x1 = 0.9572	4.175
x1 = 0.977	4.003
x2 = 0.0069	3.885
